Source: patent publication US11117905B2, “Bisaryl heterocycles as NRF2 activators” (GLAXOSMITHKLINE INTELLECTUAL PROPERTY DEVELOPMENT LIMITED, priority 2016, dated 2021)

What follows are compounds tested on NQO1 specific enzyme activity in BEAS-2B cells (marker for NRF2 activation) (assay: BEAS-2B NQO1 MTT Assay). Conditions: Homo sapiens, BEAS-2B, 48 h, NQO1 specific activity induction, 48 hours with compound.
Type: cell-based
Text: NAD(P)H:quinone oxidoreductase 1 (NQO1), also called DT diaphorase, is a homodimeric FAD-containing enzyme that catalyzes obligatory NAD(P)H-dependent two-electron reductions of quinones and protects cells against the toxic and neoplastic effects of free radicals and reactive oxygen species arising from one-electron reductions. The transcription of NQO1 is finely regulated by NRF2, and thus NQO1 activity is a good marker for NRF2 activation. On day one, frozen BEAS-2B cells (ATCC) were thawed in a water bath, counted, and re-suspended at a concentration of 250,000 cells/mL. Fifty microliters of cells were plated in 384 well black clear-bottomed plates. Plates were incubated at 37° C., 5% CO2 overnight. On day two, plates were centrifuged and 50 nL of compound or controls were added to the cells. Plates were then incubated at 37° C., 5% CO2 for 48 hours. On day four, medium was aspirated from the plate and crude cell lysates were made by adding 13 uL of 1× Cell Signaling Technologies lysis buffer with 1 Complete, Mini, EDTA-free Protease Inhibitor Tablet (Roche) for each 10 mL of lysis buffer. After lysis plates were incubated for 20 minutes at room temperature. Two microliters of lysate were removed for use in Cell Titer Glo assay (Promega) and MTT cocktail was prepared (Prochaska et. al. 1998) for measurement of NQO1 activity. Fifty microliters of MTT cocktail is added to each well, plate is centrifuged, and analyzed on an Envision plate reader (Perkin Elmer) using Absorbance 570 nm label for 30 minutes. Product formation was measured kinetically and the pEC50 of NQO1 specific activity induction was calculated by plotting the change in absorbance (Delta OD/min) versus the log of compound concentration followed by 3-parameter fitting.
pEC50 is the negative log of the EC50.
EC50s<1 nM (+++++), EC50s 1 nM-10 nM (++++), EC50s 10 nM-100 nM (+++), EC50s 100 nM-1 uM (++), EC50s 1 uM-10 uM (+), EC50s>10 uM (−), or were not determined (ND).

**Q.** For `CC[C@H]1Cc2ncccc2S(=O)(=O)N(Cc2nc([C@@H](c3ccc4c(nnn4CC)c3C)C(C)(C)C(=O)O)sc2C)C1` [Example 33, (S)-3-(4-(((S)-4-Ethyl-1,1-dioxido-4,5-dihydropyrido[2,3-f][1,2]thiazepin-2(3H)-yl)methyl)-5-methylthiazol-2-yl)-3-(1-ethyl-4-methyl-1H-benzo[d][1,2,3]triazol-5-yl)-2,2-dimethylpropanoic Acid], which EC50 is on record?
**A.** < 1 nM

**Q.** Which EC50 does the source give for `CC[C@H]1Cc2ncccc2S(=O)(=O)N(Cc2nc([C@@H](c3ccc4c(nnn4CC)c3C)C(C)(C)C(=O)Nc3cccnc3)sc2C)C1` [Example 34, (S)-3-(4-(((S)-4-Ethyl-1,1-dioxido-4,5-dihydropyrido[2,3-f][1,2]thiazepin-2(3H)-yl)methyl)-5-methylthiazol-2-yl)-3-(1-ethyl-4-methyl-1H-benzo[d][1,2,3]triazol-5-yl)-2,2-dimethyl-N-(pyridin-3-yl)propanamide] here?
**A.** 100 to 1000 nM

**Q.** Which EC50 does the source give for `CC[C@@H]1CN(Cc2cc([C@@H](CCc3cn(CC)nn3)C(C)(C)C(=O)O)sc2C)S(=O)(=O)c2cccnc2O1` [Example 59, (S)-3-(4-(((R)-4-Ethyl-1,1-dioxido-3,4-dihydro-2H-pyrido[2,3-b][1,4,5]oxathiazepin-2-yl)methyl)-5-methylthiophen-2-yl)-5-(1-ethyl-1H-1,2,3-triazol-4-yl)-2,2-dimethylpentanoic Acid] here?
**A.** 1 to 10 nM

**Q.** How did the EC50 turn out when `CC[C@@H]1CN(Cc2nc([C@@H](c3ccc4c(nnn4CC)c3C)C(C)(C)C(=O)O)sc2C)S(=O)(=O)c2cnccc2O1` [Example 27, (S)-3-(4-(((R)-4-Ethyl-1,1-dioxido-3,4-dihydro-2H-pyrido[4,3-b][1,4,5]oxathiazepin-2-yl)methyl)-5-methylthiazol-2-yl)-3-(1-ethyl-4-methyl-1H-benzo[d][1,2,3]triazol-5-yl)-2,2-dimethylpropanoic Acid] was run?
**A.** < 1 nM

**Q.** Which EC50 does the source give for `CC[C@@H]1CN(Cc2cc([C@@H](c3ccc4c(nnn4CC)c3C)C(C)(C)C(=O)O)sc2C)S(=O)(=O)c2ccccc2O1` [Example 10, (S)-3-(4-(((R)-4-Ethyl-1,1-dioxido-3,4-dihydro-2H-benzo[b][1,4,5]oxathiazepin-2-yl)methyl)-5-methylthiophen-2-yl)-3-(1-ethyl-4-methyl-1H-benzo[d][1,2,3]triazol-5-yl)-2,2-dimethylpropanoic Acid] here?
**A.** < 1 nM

**Q.** How did the EC50 turn out when `CCn1nnc2c(C)c([C@H](c3cc(CN4C[C@@H](C)Cc5ncccc5S4(=O)=O)c(C)s3)C(C)(C)C(=O)O)ccc21` [Example 19, (S)-3-(1-Ethyl-4-methyl-1H-benzo[d][1,2,3]triazol-5-yl)-2,2-dimethyl-3-(5-methyl-4-(((S)-4-methyl-1,1-dioxido-4,5-dihydropyrido[2,3-f][1,2]thiazepin-2(3H)-yl)methyl)thiophen-2-yl)propanoic Acid] was run?
**A.** < 1 nM

**Q.** With `CC[C@@H]1CN(Cc2cc([C@H](c3ccc4c(nnn4CC)c3F)C(C)(C)C(=O)O)sc2Cl)S(=O)(=O)c2ccccc2O1` [Example 40, (S)-3-(5-Chloro-4-(((R)-4-ethyl-1,1-dioxido-3,4-dihydro-2H-benzo[b][1,4,5]oxathiazepin-2-yl)methyl)thiophen-2-yl)-3-(1-ethyl-4-fluoro-1H-benzo[d][1,2,3]triazol-5-yl)-2,2-dimethylpropanoic Acid] as the compound, how does the EC50 read?
**A.** 10 to 100 nM

**Q.** For `CCn1nnc2c(C)c([C@H](c3cc(CN4C[C@H](C)Cc5ccccc5S4(=O)=O)c(C)s3)C(C)(C)C(=O)O)ccc21` [Example 17, (S)-3-(1-Ethyl-4-methyl-1H-benzo[d][1,2,3]triazol-5-yl)-2,2-dimethyl-3-(5-methyl-4-(((R)-4-methyl-1,1-dioxido-4,5-dihydrobenzo[f][1,2]thiazepin-2(3H)-yl)methyl)thiophen-2-yl)propanoic Acid], which EC50 is on record?
**A.** 1 to 10 nM

**Q.** `CC[C@@H]1CN(Cc2cc([C@H](c3ccc4c(nnn4CC)c3C)C(C)(C)C(=O)O)sc2Cl)S(=O)(=O)c2ccccc2O1` [Example 4, (R)-3-(5-Chloro-4-(((R)-4-ethyl-1,1-dioxido-3,4-dihydro-2H-benzo[b][1,4,5]oxathiazepin-2-yl)methyl)thiophen-2-yl)-3-(1-ethyl-4-methyl-1H-benzo[d][1,2,3]triazol-5-yl)-2,2-dimethylpropanoic acid] was tested. Which EC50 did it give?
**A.** 100 to 1000 nM

**Q.** For `CCn1nnc2c(C)c([C@H](c3cc(CN4CC(C)(C)Oc5ncccc5S4(=O)=O)c(C)s3)C(C)(C)C(=O)O)ccc21` [Example 8, (S)-3-(4-((4,4-Dimethyl-1,1-dioxido-3,4-dihydro-2H-pyrido[2,3-b][1,4,5]oxathiazepin-2-yl)methyl)-5-methylthiophen-2-yl)-3-(1-ethyl-4-methyl-1H-benzo[d][1,2,3]triazol-5-yl)-2,2-dimethylpropanoic Acid], which EC50 is on record?
**A.** 1 to 10 nM

**Q.** Which EC50 does the source give for `CC[C@H]1Cc2ccccc2S(=O)(=O)N(Cc2nc([C@@H](c3ccc4c(nnn4CC)c3C)C(C)(C)C(=O)O)sc2C)C1` [Example 41, (S)-3-(4-(((S)-4-Ethyl-1,1-dioxido-4,5-dihydrobenzo[f][1,2]thiazepin-2(3H)-yl)methyl)-5-methylthiazol-2-yl)-3-(1-ethyl-4-methyl-1H-benzo[d][1,2,3]triazol-5-yl)-2,2-dimethylpropanoic Acid] here?
**A.** < 1 nM

**Q.** How did the EC50 turn out when `CCn1nnc2c(C)c([C@H](c3cc(CN4C[C@@H](C)Cc5ccccc5S4(=O)=O)c(C)s3)C(C)(C)C(N)=O)ccc21` [Example 39, (S)-3-(1-Ethyl-4-methyl-1H-benzo[d][1,2,3]triazol-5-yl)-2,2-dimethyl-3-(5-methyl-4-(((S)-4-methyl-1,1-dioxido-4,5-dihydrobenzo[f][1,2]thiazepin-2(3H)-yl)methyl)thiophen-2-yl)propanamide] was run?
**A.** 10 to 100 nM

**Q.** With `CCn1cc(CC[C@@H](c2cc(CN3C[C@@H](C)Cc4ncccc4S3(=O)=O)c(C)s2)C(C)(C)C(=O)O)nn1` [Example 61, (R)-5-(1-Ethyl-1H-1,2,3-triazol-4-yl)-2,2-dimethyl-3-(5-methyl-4-(((S)-4-methyl-1,1-dioxido-4,5-dihydropyrido[2,3-f][1,2]thiazepin-2(3H)-yl)methyl)thiophen-2-yl)pentanoic Acid] as the compound, how does the EC50 read?
**A.** 1 to 10 nM

**Q.** How did the EC50 turn out when `CC[C@H]1Cc2ccc(C(F)(F)F)cc2S(=O)(=O)N(Cc2nc([C@@H](c3ccc4c(nnn4CC)c3C)C(C)(C)C(=O)O)sc2C)C1` [Example 49, (S)-3-(4-(((S)-4-Ethyl-1,1-dioxido-8-(trifluoromethyl)-4,5-dihydrobenzo[f][1,2]thiazepin-2(3H)-yl)methyl)-5-methylthiazol-2-yl)-3-(1-ethyl-4-methyl-1H-benzo[d][1,2,3]triazol-5-yl)-2,2-dimethylpropanoic Acid] was run?
**A.** < 1 nM

**Q.** How did the EC50 turn out when `CCC1CCN(Cc2nccn2Cc2cc([C@@H](c3ccc4c(nnn4CC)c3C)C(C)(C)C(=O)O)sc2C)CC1` [Example 12, (S)-3-(1-Ethyl-4-methyl-1H-benzo[d][1,2,3]triazol-5-yl)-3-(4-((2-((4-ethylpiperidin-1-yl)methyl)-1H-imidazol-1-yl)methyl)-5-methylthiophen-2-yl)-2,2-dimethylpropanoic acid] was run?
**A.** 1 to 10 nM

**Q.** `CC[C@@H]1CN(Cc2cc([C@@H](c3ccc4c(nnn4CC)c3C)C(C)(C)C(=O)O)sc2Cl)S(=O)(=O)c2ccccc2O1` [Example 3, (S)-3-(5-Chloro-4-(((R)-4-ethyl-1,1-dioxido-3,4-dihydro-2H-benzo[b][1,4,5]oxathiazepin-2-yl)methyl)thiophen-2-yl)-3-(1-ethyl-4-methyl-1H-benzo[d][1,2,3]triazol-5-yl)-2,2-dimethylpropanoic acid] was tested. Which EC50 did it give?
**A.** < 1 nM

**Q.** For `CC[C@@H]1CN(Cc2nc([C@@H](c3ccc4c(nnn4CC)c3C)C(C)(C)C(=O)O)sc2C)S(=O)(=O)c2ncccc2O1` [Example 29, (S)-3-(4-(((R)-4-Ethyl-1,1-dioxido-3,4-dihydro-2H-pyrido[3,2-b][1,4,5]oxathiazepin-2-yl)methyl)-5-methylthiazol-2-yl)-3-(1-ethyl-4-methyl-1H-benzo[d][1,2,3]triazol-5-yl)-2,2-dimethylpropanoic Acid], which EC50 is on record?
**A.** 1 to 10 nM

**Q.** How did the EC50 turn out when `CCn1nnc2c(C)c([C@@H](c3cc(CN4C[C@@H](C)Cc5ccc(C(F)(F)F)cc5S4(=O)=O)n(C)n3)C(C)(C)C(=O)O)ccc21` [Example 37, (R)-3-(1-Ethyl-4-methyl-1H-benzo[d][1,2,3]triazol-5-yl)-2,2-dimethyl-3-(1-methyl-5-(((S)-4-methyl-1,1-dioxido-8-(trifluoromethyl)-4,5-dihydrobenzo[f][1,2]thiazepin-2(3H)-yl)methyl)-1H-pyrazol-3-yl)propanoic Acid] was run?
**A.** 100 to 1000 nM

Same assay, conditions: NQO1 specific activity induction, 48 hours with compound

**Q.** `CC[C@@H]1CN(Cc2nc(C(c3ccc4c(nnn4CC)c3C)C(C)(C)C(=O)O)sc2C)S(=O)(=O)c2ccccc2O1` (single isomer, unassigned; isomer 2) [Example 14, (R or S)-3-(4-(((R)-4-Ethyl-1,1-dioxido-3,4-dihydro-2H-benzo[b][1,4,5]oxathiazepin-2-yl)methyl)-5-methylthiazol-2-yl)-3-(1-ethyl-4-methyl-1H-benzo[d][1,2,3]triazol-5-yl)-2,2-dimethylpropanoic Acid Isomer 2] was tested. Which EC50 did it give?
**A.** 10 to 100 nM
